From patent publication US20260284042A1, “DOSING REGIMEN” (ViiV Healthcare UK (No.3) Limited, priority 2024, published 2026)
Where two headings read alike, the source gives them in different places.

How the values were obtained:
[1] = Cabotegravir population pharmacokinetic (PopPK) model, CAB 200 mg/mL IM injections; parameters: species or system human
Method: In a first set of simulations, a cabotegravir population pharmacokinetic (PopPK) model was built based on PK data following cabotegravir (CAB) 200 mg/mL intramuscular (IM) injections collected in 16 historical studies (Population pharmacokinetics of cabotegravir following administration of oral tablet and long-acting intramuscular injection in adult HIV-1-infected and uninfected subjects. Han K, Baker M, Lovern M, Paul P, Xiong Y, Patel P, Moore K P, Seal C S, Cutrell A G, D'Amico R D, Benn P D, Landovitz R J, Marzinke M A, Spreen W R, Ford S L. Br J Clin Pharmacol. 2022 October;88 (10): 4607-4622. doi: 10.1111/bcp. 15439. Epub 2022 Jul. 4. PMID: 35695476) and updated based on PK data from 19 studies: LAI116585, LAI117010, LAI117011, LAI117020, 201741, 201479, 201480, 205696, LAI116482 (LATTE), LAI115428, LAI116815, 200056 (LATTE-2), 201120 (ECLAIR), 201103 (HPTN077), 201584 (FLAIR), 201585 (ATLAS), 207966 (ATLAS-2M), 201738 (HPTN 083) and 201739 (HPTN 084). A total of 34,850 CAB plasma concentrations collected at various time points from 2,694 participants were used to build this PopPK model.

[2] = cited from earlier work
HIV-1 strains = conditions: integrase strand transfer inhibitor; antiviral activity against a broad range of HIV-1 strains; cited from earlier work

C[C@H]1CO[C@@H]2Cn3cc(C(=O)NCc4ccc(F)cc4F)c(=O)c(O)c3C(=O)N12 [Cabotegravir, (3S, 11aR)-N-((2,4-difluorophenyl)methyl)-6-hydroxy-3-methyl-5,7-dioxo-2,3,5,7,11,11a-hexahydro (1,3) oxazolo (3,2-a)pyrido (1,2-d) pyrazine-8-carboxamide]
Apparent central clearance (CL/F), higher in current smokers [1]: 16.4% | KA2 versus BMI [1]: decreased with increasing BMI | KA2 versus needle length [1]: lower with longer needle length | Long-acting intramuscular gluteal absorption rate constant (KA2), lower in people assigned female at birth than male at birth ([1]; CAB 200 mg/mL IM injections): 46.5% | KA2, higher in study 201120 (ECLAIR) than other studies ([1]; after adjusting for all covariates): 22.8% | KA2 versus split injections ([1]; people assigned female at birth): not associated with split injections | KA2, higher if the injection was split ([1]; people assigned male at birth): 50.8% | 10th percentile of Ctau observed ([2]; Phase 3 study 201738 (HPTN 083), people assigned male at birth): 1.05 µg/mL | 10th percentile of Ctau observed ([2]; Phase 3 study 201739 (HPTN 084), people assigned female at birth): 1.39 µg/mL | potency (HIV-1 strains): subnanomolar
